Data on one substance can be found in patent publication US20210275449A1, “Inhalable Formulation of a Solution Containing Glycopyrronium Bromide” (priority 2020, published 2021).

The nature of data set [1]: Aerodynamic particle size distribution by Andersen Cascade Impactor (ACI). The class given is physicochemical. The following applies: Samples I-V, flow rate 28.3 L/min. The protocol:
An Andersen Cascade Impactor instrument (ACI) was used to determine the particle size distribution of Samples I-V. The test was conducted at a flow rate of 28.3 L/min. Deposition of the active substance on each ACI plate was confirmed by high pressure liquid chromatography. The particle size was expressed in terms of mass median aerodynamic diameter (MMAD) and Geometric Standard Deviation (GSD).

Data set [2] can be described thus: Aerodynamic particle size distribution of Sample VI by Next Generation Impactor (NGI), soft mist inhaler. In kind it is physicochemical. The following applies: NGI 30 L/minute, RH 90±2%. On the procedure: The aerodynamic particle size distribution was determined using a Next Generation Impactor instrument (NGI). The soft mist inhaler was held close to the NGI inlet until no aerosol was visible. The flow rate of the NGI was set to 30 L/minute and was operated under ambient temperature and a relative humidity (RH) of 90±2%.
Sample VI was discharged into the NGI. Fractions of the dose were deposited at different stages of the NGI, in accordance with the particle size of the fraction. Each fraction was washed from the stage and analyzed using HPLC.
The particle size distribution was expressed in terms of mass median aerodynamic diameter (MMAD) and geometric standard deviation (GSD).

In data set [1], “(3RS)-3-[(2 SR)-(2-cyclopentyl-2-hydroxy-2-penylacetyl)oxy]-1,1-dimethlypyrrolidinium bromide [Glycopyrronium bromide]” gave a GSD of 1.7 and an MMAD of 4.4 μm. In data set [2], the “Fine Particle Fraction (FPF)” value turned out to be 70.45%, the “Fine particle dose (FPD)” value turned out to be 8.44 µg, the GSD result is on record as “less than 2” and the MMAD entry was “less than 6 μm”. Moreover, in data set [2] (listed as Glycopyrrolate), the GSD is 1.77 and the MMAD was 4.05 μm.
